Experiments:
HFD-fed mice = assay: CCl4 or STZ treatment of HFD-fed mice: hepatic mRNA by RT-qPCR; type: in vivo, mouse; details: compared to untreated HFD-fed mice
mouse SCD1 promoter = assay: SCD1 promoter luciferase reporter assay and RT-qPCR in HEK293 cells; type: cell-based; details: DHEA 100 μM for 24 h
Procedure: In vitro luciferase reporter assay was performed to further validate the expression of SCD1 is transcriptional regulated by GPR110. Plasmid harbouring luciferase gene driven by the mouse SCD1 promoter (−2000 to +100) was constructed to transfect into HEK293 cells. Typically, HEK293 cells were cultured in DMEM supplemented with 10% FBS, 100 U/ml penicillin and 100 μg/ml streptomycin at 37° C. and 5% CO2, and then seeded in 6-well plates followed by transfection with pGL3-SCD1 promoter and adenoviral vector expressing either GPR110 (ADV-GPR110) or GFP (ADV-GFP) by using the transfection reagent (#E4981, Promega, WI, USA). There was no change of luciferase activity of pGL3- SCD1 promoter-luciferase transfected HEK293 cells under the treatment of GPR110 ligand DHEA, unless the HEK293 cells were pre-infected with adenovirus overexpressing GPR110 (ADV-GPR110; FIG. 9C). The overexpression of GPR110 in ADV-GPR110 infected cells and inductions of SCD1 mRNA expression by treatment of DHEA were also validated by RT-qPCR (FIG. 9D). The changes in hepatocyte lipid profiles by the expression level of GPR110 and SCD1 were also checked. In agreement with the in vivo data, the overexpression of GPR110 increased the intracellular CHO (FIG. 9E), TG (FIG. 9F) and FFA (FIG. 9G). […] In summary, the transcription level of SCD1 is regulated by GPR110. […]

SCD1 [1] = assay: SCD1 inhibitor MK8245 in HFD-fed rAAV-GPR110 mice: GPR110 expression, body weight, glucose homeostasis; type: in vivo, mouse
Procedure: FIG. 10A schematically depicts a scheme of different treatments to a mouse model according to certain embodiments, where eight-week-old male C57BL/6J mice were infected with either 3×10^11 copies of rAAV encoding GPR110 (rAAV-GPR110) via i.v. or control (rAAV-GFP) via i.v. after 8-week HFD feeding, and then 2 weeks after infection treated with SCD1 inhibitor, MK8245, at 10 mg/kg/week via oral administration (p.o.) or inhibitor vehicle (inhibitor-Veh.) via p.o.;
To evaluate the impacts of high hepatic GPR110 level on liver metabolism, GPR110 was overexpressed in the hepatocytes of HFD-fed mice by liver-directed rAAV/thyroxine binding globulin (TBG)-mediated gene expression system (FIGS. 2A and 3A). In general, 8-week-old C57BL/6J male mice were housed in pathogen-free conditions at controlled temperature with a 12-hour light-dark cycle and access to food and water ad libitum. The 8-week-old male mice were divided into two groups and fed with high-fat diet (HFD, 20% protein, 45% fat, 35% carbohydrates, Research Diets Inc., New Brunswick, NJ, USA), or standard chow diet (STC, 18.3% protein, 10.2% fat, 71.5% carbohydrates, Research Diet Inc., New Brunswick, NJ, USA) in some other examples, for 8 weeks. The recombinant adeno-associated virus vector rAAV2/8 transduction was conducted as described previously (Lee et al, 2016; Cheng et al, 2022). Briefly, mice were tail vein injected with 3×10^11 rAAV2/8 vector harboring either green fluorescent protein (GFP) or GPR110. In other examples, for antisense oligonucleotide (ASO) delivery, validated ASOs against mouse GPR110 were provided by Ionis Pharmaceuticals and injected subcutaneously once a week at 5 mg/kg body weight to the mice. In some other examples, for SCD1 inhibitor delivery, MK-8245 (MedChemExpress, NJ, USA) was gavage at 10 mg/kg once a week. All measurements were carried out in a randomized order. Typically, glucose profile measurement was performed in terms of the blood glucose and insulin level by collecting the blood samples from the tip of the tail of the mouse models using a glucometer. For the glucose tolerance test (GTT), insulin tolerance test (ITT) and pyruvate tolerance test (PTT), mice were fasted overnight prior to intraperitoneal injection of glucose (1 g/kg body weight (BW)) (Sigma, St. Louis, MO), 0.75 U/kg BW insulin (Novolin R, Novo Nordisk, Bagsvaerd, Denmark) or 1 g/kg BW pyruvate (Sigma, St. Louis, MO). Blood glucose levels were measured from the tip of tail vein at 15, 30, 60, 90 and 120 minutes after injection.

SCD1 [2] = assay: SCD1 inhibitor MK8245 in HFD-fed rAAV-GPR110 mice: circulating lipids, liver enzymes, hepatic steatosis
Procedure: In general, 8-week-old C57BL/6J male mice were housed in pathogen-free conditions at controlled temperature with a 12-hour light-dark cycle and access to food and water ad libitum. […] Briefly, mice were tail vein injected with 3×10^11 rAAV2/8 vector harboring either green fluorescent protein (GFP) or GPR110. […] All measurements were carried out in a randomized order.
Typically, for plasma and hepatic lipid level, serum levels of triglyceride (TG) and total cholesterol (CHO) were measured using commercial kit (Biosino, biotechnology and science INC, China) according to the manufacturer's instructions. Hepatic lipids were extracted using Folch methodology and liver extract was dissolved in ethanol for TG and CHO measurements. Both serum and hepatic levels of free fatty acid (FFA) were measured using commercial kit (Solarbio, China).
Typically, for liver function assay, the alanine aminotransferase (ALT) and aspartate aminotransferase (AST) levels were measured in serum using commercial kits (Stanbio, USA).

[3] = HFD-fed rAAV-GPR110 mice, vs untreated littermates
[4] = rAAV-GPR110 mice, chronic treatment for 11 weeks, 10 mg/kg/week p.o.
[5] = HFD-fed rAAV-GPR110 mice, 10 mg/kg/week p.o.
[6] = compared to the rAAV-GPR110 littermates

ClC(Cl)(Cl)Cl [CCl4]
SCD1 mRNA expression level (HFD-fed mice): significantly higher
expression of hepatic GPR110 mRNA (HFD-fed mice): significantly increased

CC/C=C\C/C=C\C/C=C\C/C=C\C/C=C\C/C=C\CCC(=O)NCCO [DHEA]
SCD1 mRNA expression (mouse SCD1 promoter; ADV-GPR110 infected HEK293 cells, RT-qPCR): inductions
luciferase activity of pGL3-SCD1 promoter-luciferase (mouse SCD1 promoter; HEK293 cells not pre-infected with ADV-GPR110): no change

O=C(O)Cn1nnc(-c2cc(N3CCC(Oc4cc(F)ccc4Br)CC3)no2)n1 [MK8245, 5-[3-[4-(2-bromo-5-fluorophenoxy)-1-piperidinyl]-5-isoxazolyl]-2H-tetrazole-2-acetic acid]
body weight (SCD1 [1]; HFD-fed rAAV-GPR110 mice, 10 mg/kg/week p.o., vs untreated littermates): lowered
HOMR-IR (SCD1 [1]; [3]): improved
fasting glucose level (SCD1 [1]; [3]): improved
insulin sensitivity by ITT (SCD1 [1]; [3]): no change
performance in GTT (SCD1 [1]; [3]): improved
performance in PTT (SCD1 [1]; [3]): improved
expression of GPR110 mRNA (SCD1 [1]; [4]): did not affect
expression of GPR110 protein (SCD1 [1]; [4]): did not affect
HDL (SCD1 [2]; HFD-fed rAAV-GPR110 mice): relatively higher
LDL level (SCD1 [2]; HFD-fed rAAV-GPR110 mice): no differences detected
circulating FFA level (SCD1 [2]; HFD-fed rAAV-GPR110 mice): no change
severity of fibrosis (SCD1 [2]; HFD-fed rAAV-GPR110 mice): partially reduced
circulating CHO level (SCD1 [2]; [5]): lowered
circulating TG level (SCD1 [2]; [5]): lowered
ALT level (SCD1 [2]; [6]): alleviated
AST level (SCD1 [2]; [6]): alleviated

CN(N=O)C(=O)N[C@@H]1[C@@H](O)[C@H](O)[C@@H](CO)O[C@@H]1O [STZ]
SCD1 mRNA expression level (HFD-fed mice): significantly higher
expression of hepatic GPR110 mRNA (HFD-fed mice): significantly increased
